# Read-outs that look alike come from different tables or passages of the source.
# What was measured:
# [1] = system: IL-6 induced pSTAT3, CD3+ whole blood; assay: IL-6 signaling in human whole blood, CD3+ T-cell population; format: cell-based; details: JAK 1
# [2] = system: IFNγ induced STAT1 phosphorylation; assay: IFNγ induced STAT1 phosphorylation in CD14+ monocytes of PBMC; format: cell-based; details: Homo sapiens, Monocyte, JAK 1/2, read-out: Human IC50, IFNγ pSTAT1
# Method: (§1) IL-6 and Oncostatin M (OSM) induced STAT3 phosphorylation was assessed in the human erythroleukemia TF-1 cell line. Erythropoietin-induced STAT5 phosphorylation was assessed in the human UT-7 cell line. IL-2 and IL-15 induced STAT5 phosphorylation was assessed in activated human T-cells. Detection of phosphorylated STATs was accomplished with the SureFire pSTAT5 or pSTAT3 Assay kit (Perkin Elmer, Hopkinton, MA) per standard manufacturer’s protocol, with the exception of an overnight incubation following addition of donor beads before detection on the EnVision (Perkin Elmer, Hopkinton, MA). IFNγ induced STAT1 phosphorylation was assessed in the CD14+ monocyte population in human PBMC by flow cytometry. CD14 BV421 was purchased from BD Biosciences (San Jose, CA). STAT1 PE ([…]) was purchased from ThermoFisher Scientific (Waltham, MA). IL-4 and IL-13 induced STAT6 phosphorylation and IL-31 induced STAT3 phosphorylation were assessed in adult human epithelial keratinocytes (HEKa, ThermoFisher Scientific, Waltham, MA) by flow cytometry. STAT6 PE (pY641) and STAT3 PE (Y705) were purchased from BD Biosciences (San Jose, CA).
# reticulocyte deployment = assay: Epo induced reticulocyte deployment assay; format: in vivo; details: rat, Epo challenge, highest concentration tested
# Method: Naïve male Lewis rats were injected intravenously with either PBS or 1000 IU of epoetin α (Procrit®, Janssen Products, LP, Horsham, PA) for two consecutive days. Reticulocytes were measured on day 4 by flow cytometry using thiozole orange as a dye as previously described.
# [3] = system: IL-2 induced STAT5 phosphorylation; assay: IL-2 induced STAT5 phosphorylation in activated T-cells; format: cell-based; details: T-blasts, JAK 1/3, read-out: Human IC50, IL-2 pSTAT5
# Method: as §1
# [4] = system: IL-13 induced STAT6 phosphorylation; assay: IL-13 induced STAT6 phosphorylation in HEKa; format: cell-based; details: Homo sapiens, JAK 1/TYK2, read-out: Human IC50, IL-13 pSTAT6
# Method: as §1
# [5] = system: IL-4 induced STAT6 phosphorylation; assay: IL-4 induced STAT6 phosphorylation in HEKa; format: cell-based; details: Homo sapiens, JAK 1/3, read-out: Human IC50, IL-4 pSTAT6
# Method: as §1
# IL-7 driven pSTAT5 = assay: Clinical ex vivo IL-7 stimulation of whole blood, pSTAT5; format: in vivo; details: healthy volunteers, 12 mg of upadacitinib, 1 h post dose
# Method: Recombinant human IL-6 (400 ng/ml), or IL-7 (400 ng/ml), (R&D Systems, Minneapolis, MN) was added to blood and incubated for 10 min at 37°C. Surface antibodies were added (CD14-APC, CD3-fluorescein isothiocyanate [FITC]; BD Biosciences, San Jose, CA) and incubated on ice for an additional 20 min. Samples were lysed (Lyse/Fix, BD Biosciences, San Jose, CA) and incubated for 10 min at 37°C. Samples were washed and stored at − 70°C. For intracellular staining, samples were thawed, washed, and resuspended in BD Perm buffer III (BD Biosciences, San Jose, CA) on ice for 30 min. Samples were washed and stained with pSTAT5-PE or pSTAT3-PE (BD Biosciences, San Jose, CA) for 60 min at room temperature and then analyzed immediately on a FACSCalibur. Geometric means were determined using FlowJo analysis software.
# JAK1 = JAK1 (Homo sapiens, UniProt P23458); assay: HTRF activity assay, recombinant JAK1 catalytic domain; details: JAK1 IC50 at varying ATP (0.01-1 mM), Cheng-Prusoff; data not shown
# Sequence of JAK1 (P23458 845-1142): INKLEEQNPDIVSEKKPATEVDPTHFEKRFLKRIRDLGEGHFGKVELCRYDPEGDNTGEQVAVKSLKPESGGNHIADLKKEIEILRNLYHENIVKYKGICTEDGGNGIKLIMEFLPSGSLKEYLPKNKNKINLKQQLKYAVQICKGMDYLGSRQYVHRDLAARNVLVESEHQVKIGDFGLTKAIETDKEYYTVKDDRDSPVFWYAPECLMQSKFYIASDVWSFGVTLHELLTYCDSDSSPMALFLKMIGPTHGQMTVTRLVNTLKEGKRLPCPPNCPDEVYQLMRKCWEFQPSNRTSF
# CDK2 = CDK2 (Homo sapiens, UniProt P24941); assay: trFRET binding kinome profiling
# Method: (§2) JAK activity assays using isolated kinase domains in the presence of 0.1 mM ATP and trFRET kinome profiling were conducted as described previously (17).
# MEK2 = MEK2 (Homo sapiens, UniProt P36507); assay: trFRET binding kinome profiling
# Sequence of MEK2 (P36507 whole entry, species assumed): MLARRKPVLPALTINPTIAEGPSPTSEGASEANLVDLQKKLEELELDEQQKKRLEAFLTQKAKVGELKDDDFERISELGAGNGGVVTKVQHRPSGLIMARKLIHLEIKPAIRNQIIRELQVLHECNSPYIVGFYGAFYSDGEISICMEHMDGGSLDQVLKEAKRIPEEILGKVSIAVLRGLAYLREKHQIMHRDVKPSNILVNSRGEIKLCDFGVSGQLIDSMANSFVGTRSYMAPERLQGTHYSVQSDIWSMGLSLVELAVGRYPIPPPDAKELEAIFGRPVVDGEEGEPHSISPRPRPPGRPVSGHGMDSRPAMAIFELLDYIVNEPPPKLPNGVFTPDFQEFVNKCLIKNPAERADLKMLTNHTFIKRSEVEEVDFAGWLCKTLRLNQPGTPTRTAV
# Method: as §2
# Wee1 = Wee1 (Homo sapiens, UniProt P30291); assay: trFRET binding kinome profiling
# Sequence of Wee1 (P30291 whole entry, species assumed): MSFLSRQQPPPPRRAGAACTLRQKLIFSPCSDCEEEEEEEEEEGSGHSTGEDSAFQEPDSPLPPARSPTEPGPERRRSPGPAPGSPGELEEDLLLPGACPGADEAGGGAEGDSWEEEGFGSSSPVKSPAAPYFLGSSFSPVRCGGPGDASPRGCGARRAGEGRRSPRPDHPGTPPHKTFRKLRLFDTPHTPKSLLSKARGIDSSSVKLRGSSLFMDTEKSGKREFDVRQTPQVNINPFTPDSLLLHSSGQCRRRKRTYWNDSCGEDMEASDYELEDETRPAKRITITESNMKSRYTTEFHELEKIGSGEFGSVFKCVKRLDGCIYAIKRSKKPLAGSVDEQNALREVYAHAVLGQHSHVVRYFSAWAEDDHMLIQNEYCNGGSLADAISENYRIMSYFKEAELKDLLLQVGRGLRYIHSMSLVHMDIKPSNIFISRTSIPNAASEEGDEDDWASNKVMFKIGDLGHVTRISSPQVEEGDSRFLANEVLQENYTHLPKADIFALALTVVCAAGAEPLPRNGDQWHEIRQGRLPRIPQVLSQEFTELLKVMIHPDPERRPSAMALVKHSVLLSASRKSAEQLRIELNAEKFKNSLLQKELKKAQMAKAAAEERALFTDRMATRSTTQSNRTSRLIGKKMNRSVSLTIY
# Method: as §2
# JNK1 = JNK1 (Homo sapiens, UniProt P45983); assay: trFRET binding kinome profiling
# Sequence of JNK1 (P45983 whole entry, species assumed): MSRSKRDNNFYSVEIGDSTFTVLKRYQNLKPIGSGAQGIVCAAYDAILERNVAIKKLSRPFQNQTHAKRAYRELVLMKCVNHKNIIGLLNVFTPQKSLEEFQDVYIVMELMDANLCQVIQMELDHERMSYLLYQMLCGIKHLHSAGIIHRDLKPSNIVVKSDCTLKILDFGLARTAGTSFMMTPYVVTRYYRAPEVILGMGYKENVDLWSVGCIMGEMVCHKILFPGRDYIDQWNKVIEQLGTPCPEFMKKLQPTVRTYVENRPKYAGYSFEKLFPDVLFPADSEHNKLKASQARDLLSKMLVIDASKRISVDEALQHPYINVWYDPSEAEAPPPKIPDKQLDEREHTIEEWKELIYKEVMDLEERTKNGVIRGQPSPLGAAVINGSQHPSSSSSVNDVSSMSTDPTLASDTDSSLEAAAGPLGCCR
# Method: as §2
# GRK5 = GRK5 (Homo sapiens, UniProt P34947); assay: trFRET binding kinome profiling
# Sequence of GRK5 (P34947 whole entry, species assumed): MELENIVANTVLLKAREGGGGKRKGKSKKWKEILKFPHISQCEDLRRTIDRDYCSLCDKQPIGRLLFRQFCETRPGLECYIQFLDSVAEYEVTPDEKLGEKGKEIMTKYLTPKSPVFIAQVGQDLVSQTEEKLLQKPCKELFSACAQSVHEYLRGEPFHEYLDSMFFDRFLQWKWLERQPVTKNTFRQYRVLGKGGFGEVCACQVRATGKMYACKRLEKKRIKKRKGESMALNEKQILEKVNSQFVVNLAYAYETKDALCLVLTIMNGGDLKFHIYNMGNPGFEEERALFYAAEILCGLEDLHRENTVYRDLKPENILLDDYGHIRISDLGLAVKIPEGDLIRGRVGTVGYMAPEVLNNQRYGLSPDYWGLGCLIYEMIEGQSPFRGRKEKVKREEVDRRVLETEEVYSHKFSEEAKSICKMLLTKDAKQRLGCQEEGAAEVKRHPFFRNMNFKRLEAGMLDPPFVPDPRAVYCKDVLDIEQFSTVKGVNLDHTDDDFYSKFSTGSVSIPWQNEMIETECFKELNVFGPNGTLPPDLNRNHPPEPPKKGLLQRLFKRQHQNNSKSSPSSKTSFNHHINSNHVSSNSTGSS
# Method: as §2
# Pim1 = Pim1 (Homo sapiens, UniProt P11309); assay: trFRET binding kinome profiling
# Sequence of Pim1 (P11309 whole entry, species assumed): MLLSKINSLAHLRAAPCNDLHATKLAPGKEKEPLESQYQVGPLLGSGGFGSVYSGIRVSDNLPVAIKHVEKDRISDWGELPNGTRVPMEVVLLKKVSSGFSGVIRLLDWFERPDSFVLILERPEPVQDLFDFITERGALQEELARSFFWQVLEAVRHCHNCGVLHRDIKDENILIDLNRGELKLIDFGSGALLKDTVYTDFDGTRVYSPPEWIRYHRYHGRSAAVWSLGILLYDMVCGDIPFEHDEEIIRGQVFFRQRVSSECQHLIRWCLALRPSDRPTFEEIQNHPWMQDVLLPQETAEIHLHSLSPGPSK
# Method: as §2
# MAP4K2 = MAP4K2 (Homo sapiens, UniProt Q12851); assay: trFRET binding kinome profiling
# Sequence of MAP4K2 (Q12851 whole entry, species assumed): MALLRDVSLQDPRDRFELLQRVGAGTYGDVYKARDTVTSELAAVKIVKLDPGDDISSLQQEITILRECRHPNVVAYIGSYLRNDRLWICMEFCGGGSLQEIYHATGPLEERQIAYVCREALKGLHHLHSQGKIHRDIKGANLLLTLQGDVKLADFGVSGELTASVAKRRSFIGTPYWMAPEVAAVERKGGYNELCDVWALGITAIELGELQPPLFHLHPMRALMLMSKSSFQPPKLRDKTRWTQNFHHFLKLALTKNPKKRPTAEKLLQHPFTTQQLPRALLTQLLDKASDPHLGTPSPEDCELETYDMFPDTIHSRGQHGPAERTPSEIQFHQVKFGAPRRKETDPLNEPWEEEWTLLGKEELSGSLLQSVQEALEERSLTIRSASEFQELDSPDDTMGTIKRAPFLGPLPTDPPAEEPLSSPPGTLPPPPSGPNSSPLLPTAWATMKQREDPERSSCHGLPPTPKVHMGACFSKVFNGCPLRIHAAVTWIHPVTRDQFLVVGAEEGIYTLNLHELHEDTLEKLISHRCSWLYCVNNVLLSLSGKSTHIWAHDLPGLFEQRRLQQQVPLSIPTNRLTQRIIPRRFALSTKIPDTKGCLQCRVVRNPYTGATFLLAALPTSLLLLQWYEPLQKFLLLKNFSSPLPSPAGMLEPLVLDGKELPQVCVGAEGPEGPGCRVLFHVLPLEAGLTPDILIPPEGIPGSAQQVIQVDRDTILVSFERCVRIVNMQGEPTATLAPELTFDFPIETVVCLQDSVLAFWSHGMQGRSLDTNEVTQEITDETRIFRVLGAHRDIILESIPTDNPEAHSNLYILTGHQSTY
# Method: as §2
# Fyn = Fyn (Homo sapiens, UniProt P06241); assay: trFRET binding kinome profiling
# Sequence of Fyn (P06241 whole entry, species assumed): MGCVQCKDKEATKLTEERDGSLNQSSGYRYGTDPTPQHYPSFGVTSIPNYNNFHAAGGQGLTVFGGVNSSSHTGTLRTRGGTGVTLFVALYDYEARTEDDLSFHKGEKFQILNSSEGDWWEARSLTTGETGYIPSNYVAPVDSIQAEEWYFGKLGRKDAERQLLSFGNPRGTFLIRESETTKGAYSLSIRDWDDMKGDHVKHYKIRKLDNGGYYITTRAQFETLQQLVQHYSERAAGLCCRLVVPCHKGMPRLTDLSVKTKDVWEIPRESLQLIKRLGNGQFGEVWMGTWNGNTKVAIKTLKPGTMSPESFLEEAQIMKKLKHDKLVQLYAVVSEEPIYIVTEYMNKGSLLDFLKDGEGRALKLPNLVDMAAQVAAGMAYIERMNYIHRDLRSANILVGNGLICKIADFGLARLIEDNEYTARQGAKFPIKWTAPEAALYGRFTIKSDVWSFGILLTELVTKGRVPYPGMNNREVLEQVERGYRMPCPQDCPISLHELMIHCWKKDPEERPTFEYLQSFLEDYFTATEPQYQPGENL
# Method: as §2
# Zipk = Zipk (Homo sapiens, UniProt O43293); assay: trFRET binding kinome profiling
# Sequence of Zipk (O43293 whole entry, species assumed): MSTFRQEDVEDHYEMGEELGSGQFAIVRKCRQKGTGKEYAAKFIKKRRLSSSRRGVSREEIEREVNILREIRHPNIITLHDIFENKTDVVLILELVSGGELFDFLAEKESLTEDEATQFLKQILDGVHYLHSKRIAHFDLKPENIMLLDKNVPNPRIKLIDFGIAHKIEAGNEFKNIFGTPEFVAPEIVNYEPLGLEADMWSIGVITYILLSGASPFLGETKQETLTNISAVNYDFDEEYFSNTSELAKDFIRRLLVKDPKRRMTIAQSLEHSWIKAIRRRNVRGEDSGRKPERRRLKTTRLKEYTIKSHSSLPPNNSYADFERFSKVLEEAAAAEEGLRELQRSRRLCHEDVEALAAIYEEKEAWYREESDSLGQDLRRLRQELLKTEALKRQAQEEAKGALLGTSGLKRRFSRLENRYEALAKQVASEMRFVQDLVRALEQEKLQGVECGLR
# Method: as §2
# [6] = system: IL-6 induced STAT3 phosphorylation; assay: IL-6 induced STAT3 phosphorylation in TF-1 cells; format: cell-based; details: Homo sapiens, JAK 1, read-out: Human IC50, IL-6 pSTAT3
# Method: as §1
# [7] = system: Oncostatin M (OSM) induced STAT3 phosphorylation; assay: Oncostatin M induced STAT3 phosphorylation in TF-1 cells; format: cell-based; details: Homo sapiens, JAK 1, N = 2, read-out: Human IC50, OSM pSTAT3
# Method: as §1
structure (smiles),measurement,setting,value
"CC[C@@H]1CN(C(=O)NCC(F)(F)F)C[C@@H]1c1cnc2cnc3[nH]ccc3n12 [upadacitinib, (3S,4R)-3-ethyl-4-(3H-imidazo [1,2-a]pyrrolo [2,3-e]pyrazin-8-yl)-N-(2,2,2-trifluoroethyl) pyrrolidine-1-carboxamide]",IC50,[1],0.207 µM
same,IC50,[2],0.019 µM
same,Maximal inhibition of reticulocyte deployment,reticulocyte deployment,~ 40%
same,IC50,"[3]; Homo sapiens, T-cell",0.013 µM
same,IC50,[3],0.01 µM
same,IC50,[4],0.004 µM
same,IC50,[5],0.002 µM
same,Inhibition of IL-7 driven pSTAT5,IL-7 driven pSTAT5,~ 70%
same,Mechanism of JAK1 inhibition,JAK1,ATP competitive inhibitor
same,IC50,CDK2,> 10 µM
same,IC50,MEK2,> 10 µM
same,IC50,Wee1,> 10 µM
same,IC50,JNK1,> 10 µM
same,IC50,GRK5,> 7.9 µM
same,IC50,Pim1,> 10 µM
same,IC50,MAP4K2,> 10 µM
same,IC50,Fyn,> 10 µM
same,IC50,Zipk,> 10 µM
same,IC50,[6],0.011 µM
same,IC50,[7],0.0016 µM
